Patent US20110251379A1, “COMPOUNDS USEFUL FOR TREATING NEURODEGENERATIVE DISORDERS” (Satori Pharmaceuticals, Inc., priority 2010, published 2011)
Read-outs that look alike come from different tables or passages of the source.

Tests used:
Assay type in all cases: cell-based
Aβ-40 = assay: MSD Human (6E10) Ab 3-PLEX elisa, conditioned media of 2B7 cells: Aβ-40; settings: Homo sapiens; for IC50: Aβ-40 (superscript b); for inhibition at 100 µM: Aβ-40, 100 μM; for inhibition at 20 µM: Aβ-40, 20 μM
Method in brief: (§1)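 Read-out is MSD electrochemiluminescence of secreted Aβ peptides in 2B7 conditioned media after 5 hours of compound exposure at 37° C in 1% DMSO. Concentrations come from seven-point standard curves, and IC50 values from 4-parameter fits of percent vehicle.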

Aβ-38 = assay: MSD Human (6E10) Ab 3-PLEX elisa, conditioned media of 2B7 cells: Aβ-38; settings: Homo sapiens; for IC50: Aβ-38 (superscript a); for inhibition at 20 µM: Aβ-38, 20 μM
Method in brief: as §1

Aβ-42 = assay: MSD Human (6E10) Ab 3-PLEX elisa, conditioned media of 2B7 cells: Aβ-42; settings: Homo sapiens; for IC50: Aβ-42 (superscript c); for inhibition at 20 µM: Aβ-42, 20 μM
Method in brief: as §1

Structure (SMILES)	IC50 (Aβ-40; read-out: IC50 range)	IC50 (Aβ-38; read-out: IC50 range)	IC50 (Aβ-42; read-out: IC50 range)	inhibition at 20 µM (Aβ-38)	inhibition at 20 µM (Aβ-42)	inhibition at 20 µM (Aβ-40)	other results
C[C@@H]1CC(CN2CCC[C@@H]2C(=O)O)OC2[C@H]1[C@@]1(C)CC[C@@]34C[C@@]35CC[C@H](O[C@H]3CN(C(=O)CC6CC6)CCO3)C(C)(C)[C@@H]5CCC4[C@]1(C)[C@H]2O (stereo partly shown)	> 10 µM	> 10 µM	> 10 µM				
C[C@@H]1CC(CN(C)CC(=O)O)OC2[C@H]1[C@@]1(C)CC[C@@]34C[C@@]35CC[C@H](O[C@H]3CN(C(=O)CC6CC6)CCO3)C(C)(C)[C@@H]5CCC4[C@]1(C)[C@H]2O (stereo partly shown)	> 10 µM	> 10 µM	> 10 µM				
C[C@@H]1CC(COC(N)=O)OC2[C@H]1[C@@]1(C)CC[C@@]34C[C@@]35CC[C@H](O[C@H]3CN(C(=O)CC6CC6)CCO3)C(C)(C)[C@@H]5CCC4[C@]1(C)[C@H]2O (stereo partly shown)	> 10 µM	< 1 µM	1 to 10 µM				
C[C@@H]1CC(COC(=O)N2CCC2)OC2[C@H]1[C@@]1(C)CC[C@@]34C[C@@]35CC[C@H](O[C@H]3CN(C(=O)CC6CC6)CCO3)C(C)(C)[C@@H]5CCC4[C@]1(C)[C@H]2O (stereo partly shown)	1 to 10 µM	< 1 µM	1 to 10 µM				
COC(=O)NCCC1C[C@@H](C)C2C(O1)[C@H](O)[C@@]1(C)[C@@H]3CC[C@H]4C(C)(C)[C@@H](OC5CN(C(=O)CC6CC6)CCO5)CC[C@@]45C[C@@]35CC[C@]21C (stereo partly shown)		1 to 10 µM	1 to 10 µM				inhibition at 100 µM (Aβ-40): 25 to 75%
C[C@@H]1CC(CC(=O)O)OC2[C@H]1[C@@]1(C)CC[C@@]34C[C@@]35CC[C@H](O[C@H]3CN(C(=O)CC6CC6)CCO3)C(C)(C)[C@@H]5CCC4[C@]1(C)[C@H]2O (stereo partly shown)	> 10 µM	> 10 µM	1 to 10 µM				
C[C@@H]1CC(CCC(N)=O)OC2C1[C@@]1(C)CC[C@@]34C[C@@]35CC[C@H](OC3CN(C(=O)CC6CC6)CCO3)C(C)(C)[C@@H]5CC[C@H]4[C@]1(C)[C@H]2O (stereo partly shown)	> 10 µM	1 to 10 µM	1 to 10 µM				
COC(=O)OCC1C[C@@H](C)[C@H]2C(O1)[C@H](O)[C@@]1(C)C3CC[C@H]4C(C)(C)[C@@H](OC5CN(C(=O)CC6CC6)CCO5)CC[C@@]45C[C@@]35CC[C@]21C (stereo partly shown)		1 to 10 µM					inhibition at 100 µM (Aβ-40): 25 to 75%; inhibition at 100 µM (Aβ-42; Aβ-42, 100 μM): 25 to 75%
C[C@@H]1CC(C(=O)O)OC2[C@H]1[C@@]1(C)CC[C@@]34C[C@@]35CC[C@H](OC3CN(C(=O)CC6CC6)CCO3)C(C)(C)[C@@H]5CCC4[C@]1(C)[C@H]2O (stereo partly shown)	> 10 µM	> 10 µM	1 to 10 µM				
C[C@@H]1CC(COC(N)=O)OC2[C@H]1[C@@]1(C)CC[C@@]34C[C@@]35CC[C@H](O)C(C)(C)[C@@H]5CCC4[C@]1(C)[C@H]2O (stereo partly shown)				25 to 75%	25 to 75%		IC50 (Aβ-40; read-out: 50% reduction value): > 10 µM; IC50 (Aβ-38; read-out: 50% reduction value): > 10 µM
CNC(=O)OCC1C[C@@H](C)[C@H]2C(O1)[C@H](O)[C@@]1(C)C3CC[C@H]4C(C)(C)[C@@H](O)CC[C@@]45C[C@@]35CC[C@]21C (stereo partly shown)				25 to 75%		25 to 75%	IC50 (Aβ-38; read-out: 50% reduction value): 1 to 10 µM; IC50 (Aβ-42; read-out: 50% reduction value): 1 to 10 µM
C[C@@H]1CC(COC(=O)N(C)C)OC2[C@H]1[C@@]1(C)CC[C@@]34C[C@@]35CC[C@H](O)C(C)(C)[C@@H]5CCC4[C@]1(C)[C@H]2O (stereo partly shown)					25 to 75%	25 to 75%	IC50 (Aβ-40; read-out: 50% reduction value): > 10 µM; inhibition at 4 µM (Aβ-38; Aβ-38, 4 μM): 25 to 75%
C[C@@H]1CC(C(=O)O)OC2C1[C@@]1(C)CC[C@@]34C[C@@]35CC[C@H](OC3CN(C6COC6)CCO3)C(C)(C)[C@@H]5CC[C@H]4[C@]1(C)[C@H]2O (stereo partly shown)				< 25%	< 25%	< 25%	
C[C@@H]1CC(CNC(C(=O)O)C(F)(F)F)OC2[C@H]1[C@@]1(C)CC[C@@]34C[C@@]35CC[C@H](O[C@H]3CN(C6COC6)CCO3)C(C)(C)[C@@H]5CCC4[C@]1(C)[C@H]2O (stereo partly shown)				< 25%	25 to 75%	25 to 75%	
CC(=O)OCC1C[C@@H](C)[C@H]2C(O1)[C@H](O)[C@@]1(C)C3CC[C@H]4C(C)(C)[C@@H](O[C@H]5CN(C6COC6)CCO5)CC[C@@]45C[C@@]35CC[C@]21C (stereo partly shown)				25 to 75%	< 25%	< 25%	
C[C@@H]1CC(COC(=O)C2CCOCC2)OC2[C@H]1[C@@]1(C)CC[C@@]34C[C@@]35CC[C@H](O[C@H]3CN(C6COC6)CCO3)C(C)(C)[C@@H]5CCC4[C@]1(C)[C@H]2O (stereo partly shown)				25 to 75%	25 to 75%	25 to 75%	
C[C@@H]1C[C@](C)(CO)OC2[C@H]1[C@@]1(C)CC[C@@]34C[C@@]35CC[C@H](O)C(C)(C)[C@@H]5CCC4[C@]1(C)[C@H]2O (stereo partly shown)				25 to 75%	< 25%	< 25%	
COC(=O)O[C@H](C(C)C)C1C[C@@H](C)[C@H]2C(O1)[C@H](O)[C@@]1(C)C3CC[C@H]4C(C)(C)[C@@H](O)CC[C@@]45C[C@@]35CC[C@]21C (stereo partly shown)				25 to 75%	25 to 75%	25 to 75%	
CCOC(=O)CO[C@@H]([C@H]1C[C@@H](C)[C@H]2[C@H](O1)[C@H](O)[C@@]1(C)C3CC[C@H]4C(C)(C)[C@@H](O[C@H]5CN(C6COC6)CCO5)CC[C@@]45C[C@@]35CC[C@]21C)C(C)(C)O (stereo partly shown)				25 to 75%	25 to 75%		IC50 (Aβ-40; read-out: 50% reduction value): > 10 µM
CNC(=O)O[C@@H]([C@H]1C[C@@H](C)[C@H]2[C@H](O1)[C@H](O)[C@@]1(C)C3CC[C@H]4C(C)(C)[C@@H](O)CC[C@@]45C[C@@]35CC[C@]21C)C(C)(C)O (stereo partly shown)				25 to 75%	25 to 75%	25 to 75%	
C[C@@H]1CC(COC(=O)C2CCC2)OC2[C@H]1[C@@]1(C)CC[C@@]34C[C@@]35CC[C@H](O[C@H]3CN(C6COC6)CCO3)C(C)(C)[C@@H]5CCC4[C@]1(C)[C@H]2O (stereo partly shown)				25 to 75%	< 25%	< 25%	
CC(=O)OC(C)(C)C1C[C@@H](C)[C@H]2C(O1)[C@H](O)[C@@]1(C)C3CC[C@H]4C(C)(C)C(OC(=O)N5CCOCC5)CC[C@@]45C[C@@]35CC[C@]21C (stereo partly shown)				25 to 75%	< 25%	< 25%	
CC(C)[C@@H](OC(=O)C1CCOCC1)C1C[C@@H](C)[C@H]2C(O1)[C@H](O)[C@@]1(C)[C@@H]3CC[C@H]4C(C)(C)C(O)CC[C@@]45C[C@@]35CC[C@]21C (stereo partly shown)	1 to 10 µM	> 10 µM	1 to 10 µM				
CCOCC1C[C@@H](C)[C@H]2C(O1)[C@H](O)[C@@]1(C)C3CC[C@H]4C(C)(C)C(O[C@H]5CN(C6COC6)CCO5)CC[C@@]45C[C@@]35CC[C@]21C (stereo partly shown)		1 to 10 µM		25 to 75%	< 25%	< 75%	
CC(C)[C@@H](OC(=O)N1CCC1)C1C[C@@H](C)[C@H]2C(O1)[C@H](O)[C@@]1(C)C3CC[C@H]4C(C)(C)C(OC(=O)N5CCn6cnnc6C5)CC[C@@]45C[C@@]35CC[C@]21C (stereo partly shown)							IC50 (Aβ-40; read-out: 50% reduction value): > 10 µM; IC50 (Aβ-38; read-out: 50% reduction value): < 1 µM; IC50 (Aβ-42; read-out: 50% reduction value): < 1 µM
CC(C)[C@@H](OC(=O)N1CCC1)C1C[C@@H](C)[C@H]2C(O1)[C@H](O)[C@@]1(C)C3CC[C@H]4C(C)(C)C(OC(=O)N5CCn6ccnc6C5)CC[C@@]45C[C@@]35CC[C@]21C (stereo partly shown)							IC50 (Aβ-40; read-out: 50% reduction value): > 10 µM; IC50 (Aβ-38; read-out: 50% reduction value): < 1 µM; IC50 (Aβ-42; read-out: 50% reduction value): < 1 µM
